Test results: US7091346B1, “Purine derivatives and processes for their preparation” (Novartis AG, priority 1995, dated 2006)
Several values for one entry are separate records, joined by “and”; a condition that tells them apart may be missing. Identical values can stand only once. Counter-ions that a name gives are not always drawn.

For `COc1cccc(Nc2nc(NN)nc3c2ncn3C(C)C)c1.Cl`, the melting point was 250 °C.

With `CCn1cnc2c(Nc3cccc(Cl)c3)nc(NCC(C)(C)N)nc21.Cl` the melting point was 196 °C.

`CCn1cnc2c(Nc3cccc(C#N)c3)nc(NCCN)nc21.Cl` gave a melting point of 200 °C.

In the case of `CC(C)n1cnc2c(Nc3ccc(F)cc3)nc(NCCN)nc21.Cl`, the melting point is reported as over 250 °C.

Compound `CCn1cnc2c(Nc3ccc(F)cc3)nc(NCCN)nc21.Cl` has a melting point of over 250 °C.

In the case of `CC(C)n1cnc2c(Nc3cccc(Cl)c3)nc(NCCN)nc21` (as salt: ammonium) [Example 4, 2-(2-Amino-ethylamino)-6-(3-chloro-phenyl-amino)-9-isopropyl-9H-purine], the melting point is reported as 55 to 56 °C.

`CCn1cnc2c(Nc3cccc(Cl)c3)nc(N(CCO)CCO)nc21` [Example 2, 6-(3-chloro-phenylamino)-2-(di-[2-hydroxy-ethyl]-amino)-9-ethyl-9H-purine] gave a melting point of 148 to 149 °C.

Compound `CCn1cnc2c(Nc3cccc(Cl)c3)nc(NCc3ccccc3)nc21` [Example 10, 2-benzylamino-6-(3-chloro-phenyl-amino)-9-ethyl-9H-purine] has a melting point of 88 to 90 °C.

Compound `CCn1cnc2c(Nc3cccc(Cl)c3)nc(NCCc3ccccc3)nc21` [Example 11, 2-(2-phenyl-ethyl-amino)-6-(3-chloro-phenyl-amino)-9-ethyl-9H-purine] has a melting point of 151 to 152 °C.

Work on `CCn1cnc2c(Nc3cccc(Cl)c3)nc(NCCCOC)nc21` [Example 12, 2-(3-methoxy-propyl-amino)-6-(3-chloro-phenyl-amino)-9-ethyl-9H-purine] yielded a melting point of 93 to 94 °C.

In the case of `CCn1cnc2c(Nc3cccc(Cl)c3)nc(NCC3CCCO3)nc21` (stereo not shown) [Example 15, 2-(tetrahydrofurfuryl-amino)-6-(3-chloro-phenyl-amino)-9-ethyl-9H-purine], the melting point is reported as 84 to 86 °C.

For `CCn1cnc2c(Nc3cccc(Cl)c3)nc(NCCc3ccccn3)nc21` [Example 16, 2-[2-(2-pyridyl)-ethyl-amino]-6-(3-chloro-phenyl-amino)-9-ethyl-9H-purine], the melting point was 152 to 153 °C.

With `CCn1cnc2c(Nc3cccc(Cl)c3)nc(N3CCC(CCN)CC3)nc21` [Example 18, 2-[4-(2-amino-ethyl)-piperidin-1-yl]-6-(3-chloro-phenyl-amino)-9-ethyl-9H-purine] the melting point was 182 to 184 °C.

Work on `CCn1cnc2c(Nc3cccc(Cl)c3)nc(NCCc3c[nH]c4ccccc34)nc21` [Example 20, 2-[2-(3-indolyl)-ethyl-amino]-6-(3-chloro-phenyl-amino)-9-ethyl-9H-purine] yielded a melting point of 106 to 108 °C.

For `CCn1cnc2c(Nc3cccc(Cl)c3)nc(N(C)C3(O)CCCCC3)nc21` [Example 22, 6-(3-chloro-phenyl-amino)-2-([1-hydroxy-cyclohex-1-yl]-methylamino)-9-ethyl-9H-purine], the melting point was 143 to 145 °C.

In the case of `CCn1cnc2c(Nc3cccc(Cl)c3)nc(N3CCNCC3)nc21` [Example 23, 6-(3-chloro-phenylamino)-9-ethyl-2-piperazino-9H-purine], the melting point is reported as 181.5 to 182.5 °C.

With `CCn1cnc2c(Nc3cccc(C(F)(F)F)c3)nc(NCCCO)nc21` [Example 24, 9-Ethyl-2-(3-hydroxy-propyl-amino)-6-(3-trifluoromethyl-phenyl-amino)-9H-purine] the melting point was 136 °C and 136 to 137 °C.

`CCn1cnc2c(Nc3cccc(C(=O)NCCCO)c3C)nc(NCCCO)nc21` [Example 25, 9-ethyl-2-(3-hydroxy-propyl-amino)-6-[3-[(3-hydroxy-propyl)-aminocarbonyl]-2-methyl-phenyl-amino]-9H-purine] gave a melting point of 138 to 142 °C.

Work on `COc1cccc(Nc2nc(NCCCO)nc3c2ncn3C(C)C)c1` [Example 27, 2-(3-hydroxy-propyl-amino)-6-(3-methoxy-phenyl-amino)-9-isopropyl-9H-purine] yielded a melting point of 128 to 129 °C.

In the case of `COc1cccc(Nc2nc(NCCCO)nc3c2ncn3CCO)c1` [Example 28, 9-(2-hydroxy-ethyl)-2-(3-hydroxy-propyl-amino)-6-(3-methoxy-phenyl-amino)-9H-purine], the melting point is reported as 132 to 133 °C.

Work on `COc1cc(Nc2nc(NCCCO)nc3c2ncn3C)cc(OC)c1OC` [Example 30, 2-(3-hydroxy-propyl-amino)-6-(3,4,5-trimethoxy-phenyl-amino)-9-methyl-9H-purine] yielded a melting point of 166 to 167 °C.

Work on `CCn1cnc2c(Nc3cccc(Cl)c3)nc(N3CCC[C@H]3CO)nc21` [Example 40, 6-(3-chloro-phenyl-amino)-9-ethyl-2-[(S)-2-hydroxymethyl-pyrrolidin-1-yl]-9H-purine] yielded a melting point of 169 °C.

For `CCn1cnc2c(Nc3cccc(Cl)c3)nc(Nc3cccc(N)c3)nc21` [Example 42, 2-[3-amino-phenylamino]-6-(3-chloro-phenyl-amino)-9-ethyl-9H-purine], the melting point was 205 °C.

`CCn1cnc2c(Nc3cccc(Cl)c3)nc(N3CCC[C@@H]3C(N)=O)nc21` [Example 45, 2-[(R)-(−)-2-carbamoyl-pyrrolidin-1-yl]-6-(3-chloro-phenyl-amino)-9-ethyl-9H-purine] gave a melting point of over 230 °C.

In the case of `CCn1cnc2c(Nc3cccc(Cl)c3)nc(N3CCC[C@@H]3CN)nc21` [Example 46, 2-[(R)-2-Aminomethyl-pyrrolidin-1-yl]-6-(3-chloro-phenyl-amino)-9-ethyl-9H-purine], the melting point is reported as 126 to 129 °C.

Compound `CCn1cnc2c(Nc3cccc(Cl)c3)nc(NCC(C)N)nc21` (stereo not shown) [Example 47, 2-(2-amino-propyl-amino)-6-(3-chloro-phenyl-amino)-9-ethyl-9H-purine] has a melting point of 119 to 120 °C.

Compound `CCn1cnc2c(Nc3cccc(Cl)c3)nc(N3CCCC(NC=O)C3)nc21` (stereo not shown) [Example 48, 6-(3-chloro-phenyl-amino)-9-ethyl-2-(3-formylamino-piperidin-1-yl)-9H-purine] has a melting point of 184.3 °C.

Compound `CCn1cnc2c(Nc3cccc(Cl)c3)nc(N[C@@H](C)C(N)=O)nc21` [Example 49, 2-[(S)-1-carbamoyl-ethylamino]-6-(3-chloro-phenyl-amino)-9-ethyl-9H-purine] has a melting point of 117 to 121 °C.

`CCn1cnc2c(Nc3cccc(Cl)c3)nc(N(C)C(N)=O)nc21` [Example 53, 2-[carbamoyl-methyl-amino]-6-(3-chloro-phenyl-amino)-9-ethyl-9H-purine] gave a melting point of over 220 °C.

Work on `CCn1cnc2c(Nc3cccc(Cl)c3)nc(N3CCC4(CC3)OCCO4)nc21` [Example 54, 6-(3-chloro-phenyl-amino)-2-(1,4-dioxa-8-azaspiro[4.5]dec-8-yl)-9-ethyl-9H-purine] yielded a melting point of 159 to 161 °C.

`CCn1cnc2c(Nc3cccc(Cl)c3)nc(N(CCO)C3CCCCC3)nc21` [Example 62, 6-(3-chloro-phenyl-amino)-2-[N-cyclohexyl-N-(2-hydroxy-ethyl)-amino]-9-ethyl-9H-purine] gave a melting point of 125 to 128 °C.

For `CCn1cnc2c(Nc3cccc(Cl)c3)nc(N3CCC[C@H]3C(N)=O)nc21` [Example 64, 2-[(S)-2-carbamoyl-pyrrolidin-1-yl]-6-(3-chloro-phenyl-amino)-9-ethyl-9H-purine], the melting point was over 240 °C.

In the case of `CCn1cnc2c(Nc3cccc(Cl)c3)nc(N[C@H]3CC[C@H](O)CC3)nc21` [Example 65, 6-(3-chloro-phenyl-amino)-9-ethyl-2-(trans-4-hydroxy-cyclohexyl-amino)-9H-purine], the melting point is reported as 116.5 °C.

In the case of `CCn1cnc2c(Nc3cccc(Cl)c3)nc(N3CCCC(N)C3)nc21` (stereo not shown) [Example 66, 2-(3-amino-piperidin-1-yl)-6-(3-chloro-phenyl-amino)-9-ethyl-9H-purine], the melting point is reported as 165 °C.

With `CCn1cnc2c(Nc3cccc(Cl)c3)nc(N3CCC(O)CC3)nc21` [Example 72, 6-(3-chloro-phenyl-amino)-9-ethyl-2-(4-hydroxy-piperidino)-9H-purine] the melting point was 198.7 °C.

In the case of `CCn1cnc2c(Nc3cccc(Cl)c3)nc(N3C(C)CNCC3C)nc21` (stereo not shown) [Example 74, 6-(3-chloro-phenylamino)-2-[(2,6-dimethyl)-piperazino]-9-ethyl-9H-purine], the melting point is reported as 183 °C.

In the case of `CCn1cnc2c(Nc3cccc(Cl)c3)nc(N3CCCCC3)nc21` [Example 82, 6-(3-chloro-phenyl-amino)-9-ethyl-2-piperidino-9H-purine], the melting point is reported as 126 °C.

With `CC[C@@H](CO)Nc1nc(Nc2cccc(Cl)c2)c2ncn(CC)c2n1` [Example 83, 6-(3-chloro-phenyl-amino)-9-ethyl-2-[(S)-1-hydroxy-but-2-yl-amino]-9H-purine] the melting point was 203 °C.

For `CC[C@H](CO)Nc1nc(Nc2cccc(Cl)c2)c2ncn(CC)c2n1` [Example 84, 6-(3-chloro-phenyl-amino)-9-ethyl-2-[(R)-1-hydroxy-but-2-yl-amino)-9H-purine], the melting point was 200 °C.

`CCn1cnc2c(Nc3cccc(Cl)c3)nc(NC3CCCCC3)nc21` [Example 85, 6-(3-chloro-phenyl-amino)-2-cyclohexylamino-9-ethyl-9H-purine] showed a melting point of 143 °C.

`CCn1cnc2c(Nc3cccc(Cl)c3)nc(NC[C@@H](C)O)nc21` [Example 88, 6-(3-chloro-phenyl-amino)-9-ethyl-2-[(R)-2-hydroxy-propylamino]-9H-purine] gave a melting point of 161 °C.

Compound `CCn1cnc2c(Nc3cccc(Cl)c3)nc(NC[C@H](C)O)nc21` [Example 89, 6-(3-chloro-phenyl-amino)-9-ethyl-2-[(S)-2-hydroxy-propylamino]-9H-purine] has a melting point of 161 °C.

Compound `CC(C)n1cnc2c(Nc3cccc(F)c3)nc(NCCN)nc21` [Example 91, 2-(2-Amino-ethyl-amino)-6-(3-fluoro-phenyl-amino)-9-isopropyl-9H-purine] has a melting point of over 250 °C.

`CCn1cnc2c(Nc3cccc(F)c3)nc(NCCO)nc21` [Example 92, 2-(2-hydroxy-ethyl-amino)-6-(3-fluoro-phenyl-amino)-9-ethyl-9H-purine] showed a melting point of 184 °C.

In the case of `CCn1cnc2c(Nc3cccc(C(F)(F)F)c3)nc(NCCN)nc21` [Example 95, 2-(2-amino-ethyl-amino)-9-ethyl-6-(3-trifluoromethyl-phenyl-amino)-9H-purine], the melting point is reported as over 250 °C.

Work on `CC(C)n1cnc2c(Nc3ccc(F)cc3)nc(NCCO)nc21` [Example 96, 6-(4-fluoro-phenyl-amino)-2-(2-hydroxy-ethyl-amino)-9-isopropyl-9H-purine] yielded a melting point of 139 °C.
